# Source: ChEMBL document CHEMBL5665443, “Enzyme Inhibitor Single Concentration assay results for EUbOPEN Chemogenomics Library” (2024)
# Where a SMILES comes first, the peptide text is derived from it. [ ]: non-standard residue; d: D form. The star is where a group is joined. dPhe(4-NHCONH2) = NC(=O)Nc1ccc(C[C@@H](N)C(=O)O)cc1; Dihydroorotyl(S) = O=C1C[C@@H](C(=O)*)NC(=O)N1; dPhe(4-Cl) = N[C@H](Cc1ccc(Cl)cc1)C(=O)O; Phe(4-NH2) = Nc1ccc(C[C@H](N)C(=O)O)cc1; d2Nal = N[C@H](Cc1ccc2ccccc2c1)C(=O)O; Lys(iPr) = CC(C)NCCCC[C@H](N)C(=O)O; d3Pal = N[C@H](Cc1cccnc1)C(=O)O
# Key:
# [1] = molecular target: T1, Endonuclease III-like protein 1 (Homo sapiens) (UniProt P78549); conditions: Compound Concentration 10.0 uM, Hit No;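 also: enzyme assay tracking NTHL1 cutting and release of a quenched double-stranded DNA oligo substrate, read as fluorescence at 594 nm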
# T1 sequence (whole entry): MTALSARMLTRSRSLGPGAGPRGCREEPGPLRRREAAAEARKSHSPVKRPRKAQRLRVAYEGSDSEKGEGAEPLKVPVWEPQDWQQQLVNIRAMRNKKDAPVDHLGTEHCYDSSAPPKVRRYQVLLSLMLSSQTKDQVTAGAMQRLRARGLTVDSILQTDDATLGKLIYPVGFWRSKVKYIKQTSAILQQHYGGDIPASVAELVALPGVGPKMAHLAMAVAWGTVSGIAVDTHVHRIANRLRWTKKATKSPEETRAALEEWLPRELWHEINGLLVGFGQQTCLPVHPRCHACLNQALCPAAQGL
# Description: Inhibition of NTHL1 by quantifying inhibition of NTHL1-mediated cleavage and dissociation of quenched duplex DNA oligonucleotides, measured as fluorescence at 594 nm.
# [2] = molecular target: N-glycosylase/DNA lyase (Homo sapiens) (UniProt O15527); conditions: Compound Concentration 10.0 uM;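 also: OGG1 cleavage of a quenched duplex DNA oligonucleotide, coupled to APE1 for strand incision, read as fluorescence at 594 nm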
# Description: Inhibition of OGG1 by quantifying inhibition of OGG1-mediated cleavage and dissociation of quenched duplex DNA oligonucleotides, measured as fluorescence at 594 nm. To generate a functional strand incision and increase turn-over this assay is coupled to APE1.
# [3] = molecular target: DNA-3-methyladenine glycosylase (Homo sapiens) (UniProt P29372); conditions: Compound Concentration 10.0 uM, Hit No;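 also: enzyme assay where MPG cuts a quenched duplex DNA oligonucleotide probe, paired with APE1 for strand incision and turnover, read as fluorescence at 594 nm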
# Description: Inhibition of MPG by quantifying inhibition of MPG-mediated cleavage and dissociation of quenched duplex DNA oligonucleotides, measured as fluorescence at 594 nm. To generate a functional strand incision and increase turn-over this assay is coupled to APE1.
# [4] = molecular target: T2, Endonuclease 8-like 2 (Homo sapiens) (UniProt Q969S2); conditions: Compound Concentration 10.0 uM, Hit No;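 also: fluorescence at 594 nm reports NEIL2 cutting and release of a quenched double-stranded DNA oligo substrate, reduced signal read as inhibition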
# T2 sequence (whole entry): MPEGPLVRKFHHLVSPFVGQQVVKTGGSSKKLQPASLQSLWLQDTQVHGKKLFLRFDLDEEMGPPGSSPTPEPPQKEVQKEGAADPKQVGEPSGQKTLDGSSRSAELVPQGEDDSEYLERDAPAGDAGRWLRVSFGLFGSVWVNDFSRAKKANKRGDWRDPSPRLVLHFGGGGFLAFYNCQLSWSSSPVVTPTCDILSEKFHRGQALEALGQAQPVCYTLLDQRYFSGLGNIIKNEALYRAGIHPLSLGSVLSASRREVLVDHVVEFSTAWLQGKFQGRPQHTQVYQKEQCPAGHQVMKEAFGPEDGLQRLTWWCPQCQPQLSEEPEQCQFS
# Description: Inhibition of NEIL2 by quantifying inhibition of NEIL2-mediated cleavage and dissociation of quenched duplex DNA oligonucleotides, measured as fluorescence at 594 nm.
# [5] = molecular target: Endonuclease 8-like 1 (Homo sapiens) (UniProt Q96FI4); conditions: Compound Concentration 10.0 uM, Hit No;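 also: fluorescence at 594 nm from quenched duplex DNA oligonucleotides released by NEIL1 cleavage and strand separation, reported as reduction of this enzyme activity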
# Description: Inhibition of NEIL1 by quantifying inhibition of NEIL1-mediated cleavage and dissociation of quenched duplex DNA oligonucleotides, measured as fluorescence at 594 nm.
# [6] = molecular target: T3, Single-strand selective monofunctional uracil DNA glycosylase (Homo sapiens) (UniProt Q53HV7); conditions: Compound Concentration 10.0 uM;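 also: enzymatic SMUG1 assay coupled with APE1, reading fluorescence at 594 nm released when a quenched double-stranded DNA oligonucleotide substrate is cleaved and separated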
# T3 sequence (whole entry): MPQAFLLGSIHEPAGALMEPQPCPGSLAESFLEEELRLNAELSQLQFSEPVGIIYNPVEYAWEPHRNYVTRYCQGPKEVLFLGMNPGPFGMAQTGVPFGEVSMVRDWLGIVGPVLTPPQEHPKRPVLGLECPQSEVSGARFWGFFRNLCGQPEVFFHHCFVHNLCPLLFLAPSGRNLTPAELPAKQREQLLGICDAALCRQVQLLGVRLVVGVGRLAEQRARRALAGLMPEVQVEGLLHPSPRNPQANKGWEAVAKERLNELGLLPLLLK
# Description: Inhibition of SMUG1 by quantifying inhibition of SMUG1-mediated cleavage and dissociation of quenched duplex DNA oligonucleotides, measured as fluorescence at 594 nm. To generate a functional strand incision and increase turn-over this assay is coupled to APE1.
# [7] = molecular target: Uracil-DNA glycosylase (Homo sapiens) (UniProt P13051); conditions: Compound Concentration 10.0 uM;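 also: UNG excision on a quenched double-stranded DNA oligo probe, with APE1 added for strand incision and turnover, read as fluorescence at 594 nm as strands separate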
# Description: Inhibition of UNG by quantifying inhibition of UNG-mediated cleavage and dissociation of quenched duplex DNA oligonucleotides, measured as fluorescence at 594 nm. To generate a functional strand incision and increase turn-over this assay is coupled to APE1.
# [8] = molecular target: G/T mismatch-specific thymine DNA glycosylase (Homo sapiens) (UniProt Q13569); conditions: Compound Concentration 10.0 uM, Hit No;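 also: human TDG cleavage of quenched duplex DNA oligonucleotides coupled to APE1, strand release read as fluorescence at 594 nm, inhibition of TDG activity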
# Description: Inhibition of TDG by quantifying inhibition of TDG-mediated cleavage and dissociation of quenched duplex DNA oligonucleotides, measured as fluorescence at 594 nm. To generate a functional strand incision and increase turn-over this assay is coupled to APE1.
# [9] = molecular target: Methyl-CpG-binding domain protein 4 (Homo sapiens) (UniProt O95243); conditions: Compound Concentration 10.0 uM, Hit No;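 also: MBD4 activity read as fluorescence at 594 nm from cleavage and release of a quenched duplex DNA oligonucleotide, with APE1 coupled to incise the strand and raise turnover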
# Methyl-CpG-binding domain protein 4 (Homo sapiens), sequence (O95243 whole entry, the tested form may be a part): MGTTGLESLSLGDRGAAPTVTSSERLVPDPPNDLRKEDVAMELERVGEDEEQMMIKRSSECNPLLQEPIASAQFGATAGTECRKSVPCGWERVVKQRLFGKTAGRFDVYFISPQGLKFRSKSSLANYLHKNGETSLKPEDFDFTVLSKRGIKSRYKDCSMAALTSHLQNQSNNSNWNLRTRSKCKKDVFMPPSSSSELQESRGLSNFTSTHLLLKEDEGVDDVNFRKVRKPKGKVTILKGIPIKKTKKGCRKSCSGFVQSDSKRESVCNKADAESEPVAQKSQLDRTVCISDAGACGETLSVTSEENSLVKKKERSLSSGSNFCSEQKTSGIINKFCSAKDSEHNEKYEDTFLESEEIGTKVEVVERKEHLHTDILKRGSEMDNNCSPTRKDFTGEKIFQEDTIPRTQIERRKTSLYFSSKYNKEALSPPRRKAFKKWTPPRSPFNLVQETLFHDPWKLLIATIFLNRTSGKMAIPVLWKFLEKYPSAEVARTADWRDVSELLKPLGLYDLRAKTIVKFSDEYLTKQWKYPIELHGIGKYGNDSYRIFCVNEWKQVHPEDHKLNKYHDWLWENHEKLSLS
# Description: Inhibition of MBD4 by quantifying inhibition of MBD4-mediated cleavage and dissociation of quenched duplex DNA oligonucleotides, measured as fluorescence at 594 nm. To generate a functional strand incision and increase turn-over this assay is coupled to APE1.
# DNA-3-methyladenine glycosylase (Homo sapiens), sequence (P29372 whole entry): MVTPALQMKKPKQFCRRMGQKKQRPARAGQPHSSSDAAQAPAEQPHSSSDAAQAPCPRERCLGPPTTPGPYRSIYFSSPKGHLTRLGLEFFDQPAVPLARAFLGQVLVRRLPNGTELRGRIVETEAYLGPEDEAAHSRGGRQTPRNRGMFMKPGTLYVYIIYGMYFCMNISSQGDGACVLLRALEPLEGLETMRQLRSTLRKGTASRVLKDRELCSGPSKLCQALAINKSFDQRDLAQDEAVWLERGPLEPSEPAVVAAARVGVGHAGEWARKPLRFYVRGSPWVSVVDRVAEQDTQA
# N-glycosylase/DNA lyase (Homo sapiens), sequence (O15527 whole entry): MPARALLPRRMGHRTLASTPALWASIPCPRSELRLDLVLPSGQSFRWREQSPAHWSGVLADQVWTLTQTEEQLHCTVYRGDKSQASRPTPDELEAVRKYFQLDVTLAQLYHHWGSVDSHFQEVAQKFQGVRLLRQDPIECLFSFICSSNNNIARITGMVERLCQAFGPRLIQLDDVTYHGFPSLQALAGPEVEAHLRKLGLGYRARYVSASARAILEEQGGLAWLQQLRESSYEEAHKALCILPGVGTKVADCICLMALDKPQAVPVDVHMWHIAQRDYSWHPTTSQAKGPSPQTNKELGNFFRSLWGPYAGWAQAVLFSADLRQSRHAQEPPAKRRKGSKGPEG
# G/T mismatch-specific thymine DNA glycosylase (Homo sapiens), sequence (Q13569 whole entry, the tested form may be a part): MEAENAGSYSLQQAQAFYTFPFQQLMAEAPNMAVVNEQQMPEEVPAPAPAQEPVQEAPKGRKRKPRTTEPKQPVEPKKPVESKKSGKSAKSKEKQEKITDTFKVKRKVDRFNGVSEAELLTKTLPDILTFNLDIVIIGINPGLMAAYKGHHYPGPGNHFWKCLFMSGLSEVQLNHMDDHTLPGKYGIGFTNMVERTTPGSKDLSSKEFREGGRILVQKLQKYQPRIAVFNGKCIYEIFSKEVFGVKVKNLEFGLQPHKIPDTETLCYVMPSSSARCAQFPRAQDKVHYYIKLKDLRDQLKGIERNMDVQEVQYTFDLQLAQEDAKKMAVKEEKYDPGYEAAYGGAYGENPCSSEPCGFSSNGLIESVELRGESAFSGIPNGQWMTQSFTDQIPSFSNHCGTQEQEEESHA
# Uracil-DNA glycosylase (Homo sapiens), sequence (P13051 whole entry): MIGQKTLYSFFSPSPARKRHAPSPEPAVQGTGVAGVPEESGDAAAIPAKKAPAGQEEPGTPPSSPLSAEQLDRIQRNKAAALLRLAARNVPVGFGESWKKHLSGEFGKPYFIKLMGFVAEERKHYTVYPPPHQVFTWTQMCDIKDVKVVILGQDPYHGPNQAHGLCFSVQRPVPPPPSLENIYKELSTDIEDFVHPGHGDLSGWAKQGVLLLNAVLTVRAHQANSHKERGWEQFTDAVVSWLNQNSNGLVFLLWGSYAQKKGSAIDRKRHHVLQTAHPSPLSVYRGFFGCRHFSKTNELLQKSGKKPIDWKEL
# Endonuclease 8-like 1 (Homo sapiens), sequence (Q96FI4 whole entry): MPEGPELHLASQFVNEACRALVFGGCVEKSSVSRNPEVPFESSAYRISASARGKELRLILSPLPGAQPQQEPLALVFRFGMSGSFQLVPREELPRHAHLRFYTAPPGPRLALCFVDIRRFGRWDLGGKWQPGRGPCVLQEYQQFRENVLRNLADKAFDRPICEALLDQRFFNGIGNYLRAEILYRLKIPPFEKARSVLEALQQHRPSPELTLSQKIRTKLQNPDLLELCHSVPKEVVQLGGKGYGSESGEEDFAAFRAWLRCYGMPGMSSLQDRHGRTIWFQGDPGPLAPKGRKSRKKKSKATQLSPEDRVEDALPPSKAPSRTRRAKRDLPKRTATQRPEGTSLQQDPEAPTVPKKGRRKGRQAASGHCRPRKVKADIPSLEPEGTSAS
Structure (SMILES),inhibition [1],inhibition ([2]; Hit No),inhibition [3],inhibition [4],inhibition [5],inhibition ([6]; Hit No),inhibition ([7]; Hit No),inhibition [8],inhibition [9],inhibition ([2]; Hit Yes),inhibition ([6]; Hit Yes),inhibition ([7]; Hit Yes)
CNc1nc(NCc2ccc(NS(C)(=O)=O)cc2Cl)cc(-c2ccccn2)n1,-9.07%,15%,-5.26%,7.25%,3.5%,11.2%,-9.82%,18.1%,,,,
O=C1NCCc2c(OCCCCN3CCCCC3)cccc21,23.7%,-7.4%,-7.35%,3.98%,5.05%,,-4.57%,-4.06%,2.31%,,,
c1nc(CC2CCNCC2)c[nH]1,7.05%,-4.12%,-7.11%,-0.983%,7.21%,,,10.2%,-3.22%,,,
COc1ccccc1-n1nc(C2CC(C)(C)OC(C)(C)C2)cc1-c1ccc(Cl)cc1,12.1%,,-7.01%,-4.68%,11.3%,,-3.03%,-6.29%,-1.99%,,,
CC(=O)N[C@H](Cc1ccc2ccccc2c1)C(=O)N[C@H](Cc1ccc(Cl)cc1)C(=O)N[C@H](Cc1cccnc1)C(=O)N[C@@H](CO)C(=O)N[C@@H](Cc1ccc(NC(=O)[C@@H]2CC(=O)NC(=O)N2)cc1)C(=O)N[C@H](Cc1ccc(NC(N)=O)cc1)C(=O)N[C@@H](CC(C)C)C(=O)N[C@@H](CCCCNC(C)C)C(=O)N1CCC[C@H]1C(=O)N[C@H](C)C(N)=O (Ac-[d2Nal][dPhe(4-Cl)][d3Pal]S[Phe(4-NH2)](Dihydroorotyl(S))[dPhe(4-NHCONH2)]L[Lys(iPr)]P[dA]-NH2),7.79%,,22.6%,25.7%,,,,56.9%,,98.4%,53.4%,86.3%
O=C1CSC(=O)N1C(CCc1ccncc1)COc1ccc(-c2cccc([N+](=O)[O-])c2)cc1 (stereo not drawn),17.1%,-1.32%,-5.43%,3.73%,2.68%,6.99%,-2.95%,-8.91%,,,,
O=S1(=O)c2cccc3cccc(c23)N1CCCN1CCN(c2ccc(F)cc2)CC1,18.1%,7.99%,-8.54%,-0.483%,-4.8%,12.8%,-2.78%,19%,,,,
CC[C@@H](C[C@H]1COC(N)=N1)c1ccccc1,17.9%,,-5.21%,-1.88%,8.31%,,-3.91%,11.1%,4.05%,,,
COC1CCN(c2cccc(-c3cc(NC(C)=O)nc(-n4nc(C)cc4C)n3)n2)CC1,12.2%,-4.31%,6.5%,2.26%,,,,-3.39%,-4.26%,,,
COc1ccc(CCN(C)CCCC(C#N)(c2cc(OC)c(OC)c(OC)c2)C(C)C)cc1OC (stereo not drawn),3.04%,-7.76%,-3.7%,2.71%,5.05%,-0.579%,-3.3%,-7.93%,,,,
CCCN1CCO[C@H]2c3cc(O)ccc3OC[C@@H]21,7.05%,-4.1%,3.27%,-7.97%,8.1%,,,-3.98%,-3.57%,,,
Cc1nnsc1C(=O)Nc1ccc(-n2nc(C(F)(F)F)cc2C(F)(F)F)cc1,14.6%,15.7%,-1.63%,0.414%,0.306%,15.8%,-0.15%,,,,,
C[C@H](N)Cn1ccc2cc(F)c(Cl)cc21,6.35%,,-5.64%,,,,-6.21%,-0.256%,4.93%,,,
